In patent publication US20070155764A1, “NOVEL SUBSTITUTED PYRIMIDINYLOXY UREAS USEFUL AS INHIBITORS OF PROTEIN KINASES” (KALYPSYS, INC., priority 2005, published 2007):

Experiments:
Format in all cases: biochemical
VEGFR2 kinase = target: T1, VEGFR2 kinase (Homo sapiens, UniProt P35968); experiment: In vitro VEGFR2 kinase assay; conditions: ADP Quest assay, poly Glu:Tyr substrate, 60 μM ATP
T1 construct: purchased Invitrogen Inc PV3660
Summary of the method: (§1)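 Compound was preincubated 10 min at ~22 °C with 20 ng VEGFR2 or 25 ng PDGFRβ, then poly Glu:Tyr (4:1) substrate (0.25 μg) with 60 μM ATP (in added buffer) was reacted 2 h at 30 °C. ADP Quest resorufin fluorescence was read (ex 530/em 580) after 30 min. Efficacy is expressed as percent of positive-control (Bay 43-9006) activity, with DMSO as negative control.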

PDGFRβ kinase = target: T2, PDGFRβ kinase (Homo sapiens, UniProt P09619); experiment: In vitro PDGFRβ kinase assay; conditions: ADP Quest assay, poly Glu:Tyr substrate, 60 μM ATP
T2 construct: purchased Invitrogen Inc. P3082
Summary of the method: as §1

[1] = target: T3, human B-Raf protein kinase (Homo sapiens, UniProt P15056); experiment: In vitro B-Raf/Mek1 composite kinase assay; conditions: recombinant GST-tagged human B-Raf (Δ1-415) with inactive Mek1, 2 μM ATP
T3 construct: GST (N); purchased Upstate Inc. 14-530 (B-Raf); 14-420 (Mek1)
Summary of the method: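 Luminescent ATP-depletion assay using recombinant N-terminal GST-tagged human B-Raf (Δ1-415, 1 ng/well) in MOPS pH 7.2 buffer with 10 mM MgCl2. Compounds were preincubated 15 min at about 22° C, then the reaction ran 2 h before PKLight readout. Efficacy is expressed as percentage of positive-control (Bay 43-9006) activity.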

T2 sequence (P09619 33-1106): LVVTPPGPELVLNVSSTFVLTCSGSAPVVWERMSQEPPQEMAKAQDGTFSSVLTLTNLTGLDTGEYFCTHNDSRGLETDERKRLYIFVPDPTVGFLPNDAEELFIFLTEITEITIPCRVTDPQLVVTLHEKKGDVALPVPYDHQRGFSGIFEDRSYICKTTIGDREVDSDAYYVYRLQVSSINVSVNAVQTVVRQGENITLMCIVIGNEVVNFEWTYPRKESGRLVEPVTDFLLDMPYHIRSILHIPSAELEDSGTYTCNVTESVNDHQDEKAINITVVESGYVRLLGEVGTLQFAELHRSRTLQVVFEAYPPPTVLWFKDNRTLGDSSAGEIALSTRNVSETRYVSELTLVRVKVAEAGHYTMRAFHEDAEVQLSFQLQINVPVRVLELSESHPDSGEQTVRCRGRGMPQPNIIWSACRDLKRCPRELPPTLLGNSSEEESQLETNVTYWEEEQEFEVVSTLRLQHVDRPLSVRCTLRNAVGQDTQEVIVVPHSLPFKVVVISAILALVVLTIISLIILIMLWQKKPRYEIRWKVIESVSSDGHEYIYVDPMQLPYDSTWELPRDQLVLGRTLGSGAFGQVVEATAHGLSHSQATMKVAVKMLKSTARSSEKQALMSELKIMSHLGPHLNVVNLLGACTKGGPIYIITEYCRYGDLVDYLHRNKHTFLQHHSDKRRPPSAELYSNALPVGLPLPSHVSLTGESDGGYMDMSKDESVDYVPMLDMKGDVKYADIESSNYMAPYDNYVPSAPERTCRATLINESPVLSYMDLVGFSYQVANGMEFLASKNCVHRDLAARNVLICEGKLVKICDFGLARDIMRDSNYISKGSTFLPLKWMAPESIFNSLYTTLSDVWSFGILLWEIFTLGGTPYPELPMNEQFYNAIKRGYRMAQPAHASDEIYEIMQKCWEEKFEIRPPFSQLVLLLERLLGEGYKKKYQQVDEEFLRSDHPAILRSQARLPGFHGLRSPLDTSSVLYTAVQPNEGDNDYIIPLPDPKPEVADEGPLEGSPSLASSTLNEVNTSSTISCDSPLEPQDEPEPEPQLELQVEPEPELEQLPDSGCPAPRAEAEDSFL
T3 sequence (P15056 416-766): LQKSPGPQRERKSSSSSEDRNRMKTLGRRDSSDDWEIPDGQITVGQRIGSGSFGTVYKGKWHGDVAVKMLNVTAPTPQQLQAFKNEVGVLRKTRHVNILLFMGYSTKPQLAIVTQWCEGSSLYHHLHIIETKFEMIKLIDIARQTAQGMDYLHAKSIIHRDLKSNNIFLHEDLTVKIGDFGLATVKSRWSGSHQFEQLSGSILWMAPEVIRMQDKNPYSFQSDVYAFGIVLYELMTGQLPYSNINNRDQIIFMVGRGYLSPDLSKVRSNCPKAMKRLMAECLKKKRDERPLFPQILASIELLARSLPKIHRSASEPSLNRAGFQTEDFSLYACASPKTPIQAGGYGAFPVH
T1 sequence (P35968 20-1356): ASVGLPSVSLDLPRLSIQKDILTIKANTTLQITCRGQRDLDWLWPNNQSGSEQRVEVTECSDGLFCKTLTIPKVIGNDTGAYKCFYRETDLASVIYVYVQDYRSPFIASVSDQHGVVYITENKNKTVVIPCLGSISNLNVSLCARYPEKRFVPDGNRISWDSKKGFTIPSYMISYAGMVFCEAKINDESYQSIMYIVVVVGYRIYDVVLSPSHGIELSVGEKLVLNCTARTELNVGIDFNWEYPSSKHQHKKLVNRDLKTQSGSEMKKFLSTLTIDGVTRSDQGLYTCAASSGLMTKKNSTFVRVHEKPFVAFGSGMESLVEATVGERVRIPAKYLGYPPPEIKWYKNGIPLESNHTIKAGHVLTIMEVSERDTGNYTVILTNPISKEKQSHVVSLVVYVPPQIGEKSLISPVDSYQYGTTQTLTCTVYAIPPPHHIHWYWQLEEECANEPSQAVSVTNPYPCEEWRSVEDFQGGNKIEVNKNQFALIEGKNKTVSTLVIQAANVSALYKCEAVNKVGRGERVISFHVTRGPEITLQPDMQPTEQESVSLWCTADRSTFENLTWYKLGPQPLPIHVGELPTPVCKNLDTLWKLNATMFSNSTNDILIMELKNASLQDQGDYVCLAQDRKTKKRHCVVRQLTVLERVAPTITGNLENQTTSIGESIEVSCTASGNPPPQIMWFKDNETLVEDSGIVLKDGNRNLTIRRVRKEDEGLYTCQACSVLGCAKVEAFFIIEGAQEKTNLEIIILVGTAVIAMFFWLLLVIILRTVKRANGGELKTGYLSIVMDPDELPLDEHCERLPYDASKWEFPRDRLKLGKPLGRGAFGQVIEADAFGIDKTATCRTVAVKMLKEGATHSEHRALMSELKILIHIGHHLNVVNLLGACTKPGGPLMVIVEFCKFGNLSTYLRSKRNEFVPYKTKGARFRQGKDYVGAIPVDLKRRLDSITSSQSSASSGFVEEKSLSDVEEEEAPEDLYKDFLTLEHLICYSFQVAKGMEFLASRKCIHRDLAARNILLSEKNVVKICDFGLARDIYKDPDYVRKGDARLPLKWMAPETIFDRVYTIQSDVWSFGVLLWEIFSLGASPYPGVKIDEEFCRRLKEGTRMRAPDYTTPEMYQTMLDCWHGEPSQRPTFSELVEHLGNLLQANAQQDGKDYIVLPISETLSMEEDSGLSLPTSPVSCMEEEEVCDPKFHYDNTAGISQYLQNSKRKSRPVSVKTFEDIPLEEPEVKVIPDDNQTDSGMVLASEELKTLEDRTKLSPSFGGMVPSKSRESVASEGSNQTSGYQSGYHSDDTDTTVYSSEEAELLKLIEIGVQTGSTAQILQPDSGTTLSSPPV

| IC50 (VEGFR2 kinase) [µM] | IC50 (PDGFRβ kinase) [µM] | IC50 [1] [µM] | SMILES |
| --- | --- | --- | --- |
| ≤ 10 | ≤ 10 | ≤ 10 | Cn1nccc1-c1cc(Oc2cccc(NC(=O)Nc3ccc(Cl)c(C(F)(F)F)c3)c2)ncn1 [Example 62, 1-(4-Chloro-3-(trifluoromethyl)phenyl)-3-(3-(6-(1-methyl-1H-pyrazol-5-yl)pyrimidin-4-yloxy)phenyl)urea] |
| > 10 | > 10 | > 10 | CN(C(=O)Nc1ccc(Oc2ccnc(-c3nnco3)c2)cc1)c1ccc(Cl)c(C(F)(F)F)c1 [Example 108, 3-(4-(2-(1,3,4-Oxadiazol-2-yl)pyridin-4-yloxy)phenyl)-1-(4-chloro-3-(trifluoromethyl)phenyl)-1-methylurea] |
| ≤ 10 | ≤ 10 | ≤ 10 | O=C(Nc1ccc(Oc2ccnc(-c3nnco3)c2)cc1)Nc1cc(C(F)(F)F)c(Cl)cc1OCCN1CCCC1 [Example 41, 1-(4-(2-(1,3,4-Oxadiazol-2-yl)pyridin-4-yloxy)phenyl)-3-(4-chloro-2-(2-(pyrrolidin-1-yl)ethoxy)-5-(trifluoromethyl)phenyl)urea] |
| ≤ 10 | ≤ 10 | ≤ 10 | CN(C(=O)Nc1ccc(Cl)c(C(F)(F)F)c1)c1ccc(Oc2ccnc(-c3nc(C(F)(F)F)c[nH]3)c2)cc1 [Example 120, 3-(4-Chloro-3-trifluoromethyl-phenyl)-1-methyl-1-{4-[2-(4-trifluoromethyl-1H-imidazol-2-yl)-pyridin-4-yloxy]-phenyl}-urea] |
| ≤ 10 | ≤ 10 | ≤ 10 | Cn1cc(-c2nccc(Oc3ccc(F)c(NC(=O)Nc4ccc(Cl)c(C(F)(F)F)c4)c3)n2)cn1 [Example 78, 1-(4-Chloro-3-(trifluoromethyl)phenyl)-3-(2-fluoro-5-(2-(1-methyl-1H-pyrazol-4-yl)pyrimidin-4-yloxy)phenyl)urea] |
| ≤ 10 | ≤ 10 | ≤ 10 | Cn1cc(-c2cc(Oc3ccc(F)c(NC(=O)Nc4ccc(C(F)(F)F)cc4)c3)ncn2)cn1 [Example 100, 1-(2-Fluoro-5-(6-(1-methyl-1H-pyrazol-4-yl)pyrimidin-4-yloxy)phenyl)-3-(4-(trifluoromethyl)phenyl)urea] |
| > 10 | ≤ 10 | ≤ 10 | O=C(Nc1cccc(Oc2cc(-c3nc(C(F)(F)F)c[nH]3)ncn2)c1)Nc1ccc(Cl)c(C(F)(F)F)c1 [Example 74, 1-(4-Chloro-3-(trifluoromethyl)phenyl)-3-(3-(6-(4-(trifluoromethyl)-1H-imidazol-2-yl)pyrimidin-4-yloxy)phenyl)urea] |
| ≤ 10 | ≤ 10 | ≤ 10 | COCCOc1ccc(NC(=O)Nc2ccc(Oc3cc(-c4cnn(C)c4)ncn3)cc2)cc1C(F)(F)F [Example 52, 1-(4-(2-Methoxyethoxy)-3-(trifluoromethyl)phenyl)-3-(4-(6-(1-methyl-1H-pyrazol-4-yl)pyrimidin-4-yloxy)phenyl)urea] |
| ≤ 10 | ≤ 10 | ≤ 10 | O=C(Nc1cccc(Oc2cc(-c3ccn[nH]3)ncn2)c1)Nc1ccc(Cl)c(C(F)(F)F)c1 [Example 40, 1-(3-(6-(1H-Pyrazol-5-yl)pyrimidin-4-yloxy)phenyl)-3-(4-chloro-3-(trifluoromethyl)phenyl)urea] |
| ≤ 10 | ≤ 10 | ≤ 10 | O=C(Nc1ccc(Oc2cc(-c3cnn(CCN4CCOCC4)c3)ncn2)cc1)Nc1ccc(Cl)c(C(F)(F)F)c1 [Example 76, 1-(4-Chloro-3-(trifluoromethyl)phenyl)-3-(4-(6-(1-(2-morpholinoethyl)-1H-pyrazol-4-yl)pyrimidin-4-yloxy)phenyl)urea] |
| ≤ 10 | ≤ 10 | ≤ 10 | C#Cc1cccc(NC(=O)Nc2cccc(Oc3cc(-c4cnn(C)c4)ncn3)c2)c1 [Example 86, 1-(3-Ethynylphenyl)-3-(3-(6-(1-methyl-1H-pyrazol-4-yl)pyrimidin-4-yloxy)phenyl)urea] |
